The test system of the assay is 415267-285-R-J2-PDC complex spheroid viability. Kind of assay: Anticancer human tumor 415267-285-R-J2-PDC patient-derived breast carcinoma cell line growth inhibition [POLQ]. Particulars: for viability, T/C: stronger effect = lower value. In a few lines: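 Complex spheroid viability model combining PDC tumour cells with endothelial (HUVEC) and MSC stromal cells. Novobiocin, ART-558 or RP6685 were tested singly and in combination with standard and investigational anticancer drugs. Each was titrated in half-log steps from near clinical Cmax, or from 10 microM where Cmax was unknown.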

The mark [1] stands for this setting: curve of first compound, second compound 0.0316 µM.
Setting [2] is: curve of first compound, second compound 0.1 µM.
The mark [3] stands for this setting: curve of first compound, second compound 0.316 µM.
Setting [4] is: curve of first compound, second compound 1 µM.
Setting [5] is: curve of first compound, second compound 3.16 µM.
Setting [6] is: curve of first compound, second compound 10 µM.
The mark [7] stands for this setting: second compound 0.0316 µM, first compound 0.0316 µM.
Where [8] appears, read: second compound 0.0316 µM, first compound 0.1 µM.
Setting [9] is: second compound 0.1 µM, first compound 0.0316 µM.
Where [10] appears, read: second compound 0.1 µM, first compound 0.1 µM.
The mark [11] stands for this setting: second compound 0.316 µM, first compound 0.0316 µM.
Where [12] appears, read: second compound 0.316 µM, first compound 0.1 µM.
The mark [13] stands for this setting: second compound 1 µM, first compound 0.0316 µM.
Setting [14] is: second compound 1 µM, first compound 0.1 µM.
The mark [15] stands for this setting: second compound 3.16 µM, first compound 0.0316 µM.
[16] abbreviates: second compound 3.16 µM, first compound 0.1 µM.
The mark [17] stands for this setting: second compound 10 µM, first compound 0.0316 µM.
The mark [18] stands for this setting: second compound 10 µM, first compound 0.1 µM.

“And” between values parts separate entries of the source, which are not always exact repeats. Identical values can stand only once.
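Note: spheroids exposed to compounds for one week before readout.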
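Throughout, for viability, T/C: luminescence used as stand-in measure of viable cells; 100% = DMSO vehicle control viability.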

Regarding `Cn1ncnc1[C@H]1c2n[nH]c(=O)c3cc(F)cc(c23)N[C@@H]1c1ccc(F)cc1` + COC1C(OC(N)=O)C(O)C(Oc2ccc3c(O)c(NC(=O)c4ccc(O)c(CC=C(C)C)c4)c(=O)oc3c2C)OC1(C)C, the IC50 (as a rule, the midpoint of a concentration-inhibition curve) under setting [1] is above 100 nM; the IC50 under setting [2] is above 100 nM; the IC50 under setting [3] is above 100 nM; the IC50 under setting [4] was above 100 nM; the IC50 under setting [5] is above 100 nM; the IC50 under setting [6] is above 100 nM. Further, the viability, T/C (in general, the result in the treated group divided by that in the control group, in per cent) was 102% (second compound 0.0316 µM, first compound 0.000316 µM); 98.6% (second compound 0.0316 µM, first compound 0.001 µM); 113% (second compound 0.0316 µM, first compound 0.00316 µM); 101% (second compound 0.0316 µM, first compound 0.01 µM); 107% under setting [7]; 93% under setting [8]. Moreover, the viability, T/C reads like this: (second compound 0.1 µM, first compound 0.000316 µM) 105%; (second compound 0.1 µM, first compound 0.001 µM) 99.3%; (second compound 0.1 µM, first compound 0.00316 µM) 101%; (second compound 0.1 µM, first compound 0.01 µM) 103%; under setting [9], 97.8%; under setting [10], 106%. Also, the viability, T/C was 112% (second compound 0.316 µM, first compound 0.000316 µM); 99.6% (second compound 0.316 µM, first compound 0.001 µM); 94.2% (second compound 0.316 µM, first compound 0.00316 µM); 106% (second compound 0.316 µM, first compound 0.01 µM); 107% under setting [11]; 104% under setting [12]. The viability, T/C (second compound 1 µM, first compound 0.000316 µM) was 97.6%; the viability, T/C (second compound 1 µM, first compound 0.001 µM) is 93.3%; the viability, T/C (second compound 1 µM, first compound 0.00316 µM) was 94.8%; the viability, T/C (second compound 1 µM, first compound 0.01 µM) was 97.9%; the viability, T/C under setting [13] was 109%; the viability, T/C under setting [14] was 105%. In addition, the viability, T/C is 89.6% (second compound 3.16 µM, first compound 0.000316 µM); 92.9% (second compound 3.16 µM, first compound 0.001 µM); 95.4% (second compound 3.16 µM, first compound 0.00316 µM); 105% (second compound 3.16 µM, first compound 0.01 µM); 109% under setting [15]; 103% under setting [16]. In addition, the viability, T/C by setting is: (second compound 10 µM, first compound 0.000316 µM) 105%; (second compound 10 µM, first compound 0.001 µM) 101%; (second compound 10 µM, first compound 0.00316 µM) 101%; (second compound 10 µM, first compound 0.01 µM) 96.3%; under setting [17], 102%; under setting [18], 96.1%.

Turning to `COc1cccc2c1C(=O)c1c(O)c3c(c(O)c1C2=O)CC(O)(C(=O)CO)CC3OC1CC(N)C(O)C(C)O1` (configuration not stated), the viability, T/C is 35.4% and 85.5% and 41% (compound 0.0316 µM); 9.21% and 18.3% and 12.6% (compound 0.1 µM); 5.21% and 3.68% and 5.75% (compound 0.316 µM); 0.77% and 1.01% and 0.92% (compound 1 µM); 2.13% and 1.47% and 1.31% (compound 3.16 µM); 2.79% and 3.72% and 2.89% (compound 10 µM). Besides, the IC50 (curve of compound) was < 31.6 nM and 58.1 nM.

Turning to `CC(C)n1c(=O)n(C)c2cnc3cc(F)c(-c4ccc(OCCCN5CCCCC5)nc4)cc3c21`, the viability, T/C (compound 0.0316 µM) is 92.3% and 106% and 90.9%; the viability, T/C (compound 0.1 µM) is 97% and 105% and 101%; the viability, T/C (compound 0.316 µM) was 102% and 115% and 91.9%; the viability, T/C (compound 1 µM) is 112% and 121% and 108%; the viability, T/C (compound 3.16 µM) is 110% and 108% and 96.3%; the viability, T/C (compound 10 µM) is 83.6% and 103% and 97.1%. Moreover, under “curve of compound”, the IC50 was above 10000 nM.

With `CC(C)n1c(=O)n(C)c2cnc3cc(F)c(-c4ccc(OCCCN5CCCCC5)nc4)cc3c21` + Cc1cccc(N(C)C(=O)C2C(O)CCN2c2nc(C)cc(C(F)(F)F)c2C#N)c1, the IC50 is above 10000 nM under setting [1]; above 10000 nM under setting [2]; above 10000 nM under setting [3]; above 10000 nM under setting [4]; above 10000 nM under setting [5]; above 10000 nM under setting [6]. Besides, the viability, T/C is, setting by setting: under setting [7], 88.5%; under setting [8], 107%; (second compound 0.0316 µM, first compound 0.316 µM) 100%; (second compound 0.0316 µM, first compound 1 µM) 110%; (second compound 0.0316 µM, first compound 3.16 µM) 111%; (second compound 0.0316 µM, first compound 10 µM) 93.8%. Besides, the viability, T/C reads like this: under setting [9], 89.7%; under setting [10], 88.6%; (second compound 0.1 µM, first compound 0.316 µM) 105%; (second compound 0.1 µM, first compound 1 µM) 101%; (second compound 0.1 µM, first compound 3.16 µM) 101%; (second compound 0.1 µM, first compound 10 µM) 80.6%. Further, the viability, T/C runs as follows: under setting [11], 103%; under setting [12], 98.5%; (second compound 0.316 µM, first compound 0.316 µM) 105%; (second compound 0.316 µM, first compound 1 µM) 105%; (second compound 0.316 µM, first compound 3.16 µM) 111%; (second compound 0.316 µM, first compound 10 µM) 92.5%. For the same compound, the viability, T/C by setting is: under setting [13], 102%; under setting [14], 94.8%; (second compound 1 µM, first compound 0.316 µM) 108%; (second compound 1 µM, first compound 1 µM) 109%; (second compound 1 µM, first compound 3.16 µM) 104%; (second compound 1 µM, first compound 10 µM) 87.5%. Further, the viability, T/C reads like this: under setting [15], 94.4%; under setting [16], 111%; (second compound 3.16 µM, first compound 0.316 µM) 96.7%; (second compound 3.16 µM, first compound 1 µM) 105%; (second compound 3.16 µM, first compound 3.16 µM) 87.5%; (second compound 3.16 µM, first compound 10 µM) 81.9%. Also, the viability, T/C reads like this: under setting [17], 99.1%; under setting [18], 86.1%; (second compound 10 µM, first compound 0.316 µM) 90.4%; (second compound 10 µM, first compound 1 µM) 96.8%; (second compound 10 µM, first compound 3.16 µM) 87.6%; (second compound 10 µM, first compound 10 µM) 81%.

In the case of `CC[C@@]1(O)C(=O)OCc2c1cc1n(c2=O)Cc2cc3c(CN(C)C)c(O)ccc3nc2-1`, the viability, T/C was 95.8% and 95.3% and 99.4% (compound 0.000316 µM); 113% and 97% and 101% (compound 0.001 µM); 103% and 108% and 98.3% (compound 0.00316 µM); 90.7% and 108% and 86.8% (compound 0.01 µM); 25.3% and 37.5% and 22.8% (compound 0.0316 µM); 7.48% and 7.95% and 7.34% (compound 0.1 µM). Where the note is “curve of compound”, the IC50 was 20.5 nM and 25.3 nM and 19.4 nM.

Regarding `Cc1cccc(N(C)C(=O)C2C(O)CCN2c2nc(C)cc(C(F)(F)F)c2C#N)c1` (configuration not stated), the viability, T/C is 99.1% [middle of 13 runs] (compound 0.0316 µM); 100% [middle of 13 runs] (compound 0.1 µM); 102% [middle of 13 runs] (compound 0.316 µM); 103% [middle of 13 runs] (compound 1 µM); 104% [middle of 13 runs] (compound 3.16 µM); 98.5% [middle of 13 runs] (compound 10 µM). Further, the IC50 was above 10000 nM (compound alone, run of 01/08/2024) and above 10000 nM (compound alone, run of 01/19/2024).

For the compound `CC1COCCN1c1cc(-c2ccnn2C)c2ccnc(-c3ccn[nH]3)c2n1` (configuration not stated), the viability, T/C was 46.6% and 47.9% and 59.5% (compound 0.0316 µM); 10.6% and 13.9% and 11.1% (compound 0.1 µM); 6.96% and 5.73% and 5.2% (compound 0.316 µM); 5.32% and 5.61% and 4.36% (compound 1 µM); 4.68% and 4.28% and 3.7% (compound 3.16 µM); 4.66% and 4.53% and 3.78% (compound 10 µM). Where the note is “curve of compound”, the IC50 is < 31.6 nM and 39.6 nM.

Regarding `C#Cc1c(F)ccc2cc(O)cc(-c3ncc4c(N5CC6CCC(C5)N6)nc(OCC56CCCN5CC(F)C6)nc4c3F)c12` (configuration not stated), the viability, T/C was 106% and 95.4% and 97.2% (compound 0.0316 µM); 103% and 112% and 92.5% (compound 0.1 µM); 102% and 106% and 94.2% (compound 0.316 µM); 107% and 109% and 97.7% (compound 1 µM); 106% and 91.5% and 101% (compound 3.16 µM); 101% and 98% and 104% (compound 10 µM). For the same compound, the IC50 (curve of compound) was above 10000 nM.

The values are drawn from PubChem BioAssay AID1963847 (Molecular Pharmacology Branch, DTP, NCI, 2024).
